Measured values as given in patent US9782397B2, “Treatment of corneal neovascularization” (IRBM SCIENCE PARK S.P.A., priority 2011, dated 2017).
Entries after “also recorded” stand apart in the source; their conditions may differ. Ends that are not written are not given here.

How the values were obtained:
[1] = system: corneal neovascularization; test: Alkali burn (sodium hydroxide caustication) neovascularization model; format: in vivo, C57Bl/6 mice
[2] = system: corneal neovascularization; test: as above; format: in vivo, C57Bl/6 mice; settings: for corneal perforation / corneal transparency / incidence of symblepharon and ankyloblepharon / lid anatomy: topical treatment of ocular burns, Examples 4-6
Procedure: Prior to pellet implantation or caustication, animals were anesthetized by intraperitoneal injection of ketamine (120 mg/kg) and xylazine (20 mg/kg) before any surgery.
In fact, the Alkali burn model is considered an inflammation-driven model of neovascularisation, whereby a reduction in inflammatory cell influx is associated with clinical improvement.
Mice were anesthetized by intraperitoneal injection of ketamine (120 mg/kg) and xylazine (20 mg/kg) before any surgery. A 2-mm disc of filter paper saturated with 1 N NaOH was placed onto the right cornea of each mouse for 40 seconds, followed by rinsing extensively with phosphate-buffered saline (PBS) for 2 minutes.
(§1) After taking photographs under the slit lamp, five mice per group were sacrificed 7 days after b-FGF micropellet implantation or caustication, and freshly enucleated eyes were prepared into corneal flat mounts. Immunohistochemical staining was performed with FITC-conjugated CD31/PECAM-1 (rat-anti-mouse antibody; 1:100; Santa Cruz Biotechnology, Santa Cruz, Calif.). Images were taken at 40×, 400× and 600× magnification. To quantify the blood vessels, corneal whole-mounts were covered with mounting medium (Vector, Burlingame, Calif.) and examined by an epifluorescent microscope. For toxicity studies, mice were examined at the slit lamp daily. Animals were sacrificed seven days later and eye bulbs were removed, fixed in 4% paraformaldehyde, cross-sectioned and stained with standard hematoxylin-eosin. At least three to five different corneas were examined; representative data are presented.
(§2) Both slit-lamp and fluorescence microscopy pictures were qualitatively compared for the amount of corneal neovascularization. Gross anatomical alterations such as disruption of epithelial layer, inflammatory cell infiltration, or endothelial cell loss were searched in hematoxylin-eosin cross sections.
Male 6- to 8-week-old C57Bl/6 mice were treated to induce neovascularization using sodium hydroxide caustication (see Experimental Methods)
5 mice per group were used. After taking photographs at the slit lamp, mice were sacrificed. Immunohistochemical staining was performed with FITC-conjugated CD31/PECAM-1 to reveal corneal neovessels.
Lanepitant (WO9907681) was dissolved in PBS. It was administered topically to the eye with the following dose regimen after alkali burn induced neovascularization of the cornea: • 0.4 mg/ml, 6 times a day for 4 days, starting on the day of the tissue injury (“Day 0” to “Day 3”). • 1.6 mg/ml, 6 times a day for 4 days, starting on the day of the tissue injury (“Day 0” to “Day 3”). • 6.4 mg/ml, 6 times a day for 4 days, starting on the day of the tissue injury (“Day 0” to “Day 3”). • PBS Control, 6 times a day for 4 days, starting on the day of the tissue injury (“Day 0” to “Day 3”).
Three mice (for a total of 6 eyes) were treated in each experimental group.
On Day 4, After taking photographs at the slit lamp, mice were sacrificed. Immunohistochemical staining was performed with FITC-conjugated CD31/PECAM-1 to reveal corneal neovessels (FIG. 4A). Following alkali burn, neovessels are expected to grow from the periphery towards the center of the cornea. The extent of the neovascularization is then evaluated. Briefly, corneas were excised, fixed and stained with FITC-conjugated CD31/PECAM-1 to reveal corneal neovessels. […] The neovascular area was then calculated by measuring the Neovascular Area Index (NV Index). This was obtained by calculating the ratio of the neovascular area—obtained by joining together the inner tip of the neovessels—and the total surface of the cornea (i.e. the total area of the cornea).
Befetupitant (WO020008232) was dissolved in DMSO (Dimethyl SulfOxyde).

[3] = system: healthy cornea; test: Toxicity following topical application in healthy eyes; format: in vivo, C57Bl/6 mice
Procedure: as §1, §2
Fosaprepitant toxicity was tested on the healthy cornea by administering to 3 healthy C57Bl/6 mice fosaprepitant (purchased from Universal Drug Store, Canada and diluted as per technical sheet instructions with 0.9% NaCl solution to reach a final concentration of 1 mg/ml) at the concentration of 1 mg/ml in the conjunctival sac 4 times per day for 1 week. In vivo corneal biomicroscopy imaging and hematoxylin eosin ocular cross sections were checked as markers for toxicity.

[4] = system: corneal neovascularization; test: b-FGF pellet implantation angiogenesis model (mouse corneal micropocket); format: in vivo, C57Bl/6 mice; settings: 1 mg/ml topical, 4 times per day for 1 week
Procedure: Male 6- to 8-week-old C57Bl/6 mice (Taconic Farms, Germantown, N.Y.) were used in experiments for Examples 1 to 3. Male 6- to 8-week-old C57Bl/6 mice (Charles River Lab, Calco, Milan, Italy) were used in experiments for Examples 4-6. Prior to pellet implantation or caustication, animals were anesthetized by intraperitoneal injection of ketamine (120 mg/kg) and xylazine (20 mg/kg) before any surgery.
b-FGF Pellet Implantation Angiogenesis Model
This model was employed to assess the effect of pharmaceutically active substances on the angiogenesis component of CNV.
Sustained release b-FGF micropellets (40 ng/pellet) were prepared as described in Azar D T, Am Ophthalmol Soc 2006; 104:264-302.
Briefly, the pellets were implanted through half thickness linear incisions at the center of cornea using a disposable 30 degrees microknife (F.S.T., Foster City, Calif., USA). Lamellar pocket incisions were then made parallel to the corneal plane using a Von Graefe knife (F.S.T., Foster City, Calif., USA) and advanced to the temporal limbus at lateral canthal area. The pellets were positioned into the pocket 1.0 mm apart from the limbal vascular arcade in temporal side, and tetracycline ophthalmic ointment was applied to the eye after pellet implantation to prevent post surgical infections.
as §1
as §2, with “sections. […]” for “sections.”
Following b-FGF pellet implantation, neovessels are expected to grow from the limbal vessels (i.e. from the periphery of the cornea), towards the pellet, which is placed in the avascular cornea. The extent of neovascularisation is then evaluated.

[5] = system: growth of capillary vessels; settings: slow release pellets in avascular cornea of rabbits; cited from earlier work
[6] = system: endothelial cells; settings: in vitro; cited from earlier work
[7] = system: CNV; settings: in vivo; cited from earlier work
[8] = system: CNV; settings: humans, topical administration; cited from earlier work
[9] = 1 mg/ml topical, 4 times per day for 1 week, versus placebo
[10] = increasing dose 0.4, 1.6, 6.4 mg/ml topical, 6 times a day for 4 days, Day 4

C[C@@H](O[C@H]1OCCN(Cc2nc(O)n(P(=O)(O)O)n2)[C@H]1c1ccc(F)cc1)c1cc(C(F)(F)F)cc(C(F)(F)F)c1 [fosaprepitant, [3-{[(2R,3S)-2-[(1R)-1-[3,5-bis(trifluoromethyl)phenyl]ethoxy]-3-(4-fluorophenyl)morpholin-4-yl]methyl}-5-oxo-2H-1,2,4-triazol-1-yl]phosphonic acid]
corneal neovascularization (slit lamp, epifluorescent microscopy) ([1]; 1 mg/ml topical, 4 times per day for 1 week, 7 days after caustication, versus placebo (PBS)): remarkably reduced; also recorded: reduces corneal neovascularization | density of vascular ramifications (number of vascular branches per surface unit) [1, 9]: reduced | corneal transparency ([1]; 1 mg/ml topical, 4 times per day for 1 week, versus placebo-treated corneas): much improved | area of normally avascular cornea invaded by neovessels [2, 9]: smaller | alteration of corneal epithelium, stroma or endothelium at slit lamp observation ([3]; 1 mg/ml topical, 4 times per day, up to 7 days, healthy corneas): No alteration | hematoxylin-eosin staining of eyeball cross-sections (epithelium, stroma, endothelium) ([3]; 1 mg/ml topical, 4 times per day, 7 days): no anatomical alteration was detected | toxicity to the cornea ([3]; topical application (FIG. 3)): not toxic | length of the vessels ([4]; slit lamp, 7 days after implantation): appeared reduced | area of normally avascular cornea invaded by neovessels ([4]; versus placebo): smaller | density of vascular ramifications (number of vascular branches per surface unit) ([4]; versus placebo): reduced | corneal neovascularization (slit lamp, CD31/PECAM-1 whole mounts) ([4]; conjunctival sac, 7 days after implantation, versus placebo (PBS)): less neovascularization; also recorded: reduces corneal neovascularization

Cc1ccccc1-c1cc(N2CCOCC2)ncc1N(C)C(=O)C(C)(C)c1cc(C(F)(F)F)cc(C(F)(F)F)c1 [befetupitant]
Corneal Neovascular Index ([1]; 1.6 mg/ml topical, 3 times a day for 9 days, compared to vehicle (DMSO)): statistically significant reduction | corneal neovessels (CD31/PECAM-1) ([1]; increasing doses 0.4, 1.6 mg/ml in DMSO, topical, 3 times a day for 9 days, day 9): reduced; also recorded: reduces corneal neovascularization | Corneal Neovascular Index ([2]; 0.4 mg/ml topical, 3 times a day for 9 days, compared to vehicle (DMSO)): statistically significant reduction | corneal perforation [2]: reduced | corneal transparency [2]: increased | incidence of symblepharon and ankyloblepharon [2]: reduced | lid anatomy [2]: appeared better preserved

Substance P: C-amidated decapeptide of the tachykinin family; principal receptor NK-1 (RPKPQQFFGLM-NH2; UniProt P20366 58-68, looked up)
vessel growth in the cornea [5]: induced a marked neovascularization | proliferation of endothelial cells [6]: increased proliferation

CC(=O)OCC(=O)[C@@]1(O)CC[C@H]2[C@@H]3CCC4=CC(=O)CC[C@]4(C)C3=CC[C@@]21C [anecortave acetate]
efficacy in animal models of CNV [7]: effective

COc1ccccc1CN(C[C@@H](Cc1c[nH]c2ccccc12)NC(=O)CN1CCC(N2CCCCC2)CC1)C(C)=O [lanepitant]
Cornea Neovascular Index ([1]; pre-treatment: 1.6 mg/ml topical, 6 times a day from before the injury through Day 3, day 4): statistically significant reduction | corneal neovascularization ([1]; pre-treatment: 1.6 mg/ml topical, 6 times a day from before the injury through Day 3, day 4, versus vehicle): appeared reduced; also recorded: reduces corneal neovascularization | Neovascular Area Index (NV Index) ([2]; 6.4 mg/ml topical, 6 times a day for 4 days, compared to vehicle): statistically significant reduction | anatomy of the eyelids ([2]; 0.4, 1.6, 6.4 mg/ml topical, 6 times a day for 4 days, Day 4, versus vehicle): appeared better preserved | corneal transparence ([2]; increasing dose 0.4, 1.6, 6.4 mg/ml topical, 6 times a day for 4 days from day of injury, Day 4, versus vehicle (PBS)): increased corneal transparence | Neovascular Area Index (NV Index) [2, 10]: progressively reduced | corneal neovessels (CD31/PECAM-1) [2, 10]: progressively reduced; also recorded: reduces corneal neovascularization | effect on neovascularization compared to the same dose administered after the tissue injury ([2]; pre-treatment 1.6 mg/ml versus 1.6 mg/ml started on day of injury): increased effect | corneal perforation [2]: reduced | corneal transparency [2]: increased | incidence of symblepharon and ankyloblepharon [2]: reduced | lid anatomy [2]: appeared better preserved

bevacizumab: anti-VEGF monoclonal antibody
inhibiting CNV [8]: some effect
